Drawing on patent publication US11866518B2, “Bicyclic peptide ligands specific for TSLP” (BicycleTx Limited, priority 2020, dated 2024), this text covers Kd for 16 molecules.

The Kd is the equilibrium constant for the complex coming apart.

*1 amine or outer side, *2 acyl side, *3 side chain or, on linkers, in order; H or OH if unused. Where a SMILES comes first, the peptide text is derived from it. Bridges are numbered along the chain shown (N, C = ends). TATA = O=C(CC[*:1])N1CN(C(=O)CC[*:2])CN(C(=O)CC[*:3])C1

Sequence of TSLP (Q969D9 29-159): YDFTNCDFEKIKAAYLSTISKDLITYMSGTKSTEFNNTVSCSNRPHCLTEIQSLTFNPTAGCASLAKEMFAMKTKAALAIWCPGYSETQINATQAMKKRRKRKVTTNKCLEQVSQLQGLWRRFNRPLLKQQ

The experiment concerns the target TSLP (Homo sapiens, UniProt Q969D9). Briefly: Human TSLP Surface Plasmon Resonance (SPR) binding assay. Further details: The resulting construct spCD33-6×HN-TEV-hTSLP(29-159)-Avi; 6xHN tag with TEV site (N, cleaved yes); made in house; host or cells: Expi293F cells. Conditions: biotinylated human TSLP immobilized on streptavidin chip; 20° C.; steady-state or kinetic 1:1 fit; read-out: hTSLP SPR Kd.
For `CC(=O)N[C@H]1CSCCC(=O)N2CN3CN(C2)C(=O)CCSC[C@H](NC(=O)[C@H](CC(=O)O)NC(=O)[C@H](CCC(=O)O)NC(=O)[C@H](CC(C)C)NC(=O)[C@H](Cc2c[nH]c4ccc(F)cc24)NC(=O)[C@H](CCC(N)=O)NC1=O)C(=O)N[C@@H](Cc1c[nH]c2ccc(F)cc12)C(=O)N[C@@H](CCCNC(=N)N)C(=O)NCC(=O)N[C@@H](Cc1ccc(F)cc1)C(=O)N[C@H](C(N)=O)CSCCC3=O` [Example 21, Ac-(SEQ ID NO: 19)], the dissociation constant Kd amounted to 9.2 nM.
Regarding `CC(=O)N[C@H]1CSCCC(=O)N2CN3CN(C2)C(=O)CCSC[C@H](NC(=O)[C@H](CC(=O)O)NC(=O)[C@H](CCC(=O)O)NC(=O)[C@H](CC(C)C)NC(=O)[C@H](Cc2c[nH]c4ccccc24)NC(=O)[C@H](CCC(N)=O)NC1=O)C(=O)N[C@@H](Cc1c[nH]c2ccccc12)C(=O)N[C@@H](CCCNC(=N)N)C(=O)NCC(=O)N[C@@H](Cc1ccc(Br)cc1)C(=O)N[C@H](C(N)=O)CSCCC3=O` [Example 26, Ac-(SEQ ID NO: 24)], the Kd turned out to be 11 nM.
Turning to `CC(=O)N[C@H]1CSCCC(=O)N2CN3CN(C2)C(=O)CCSC[C@H](NC(=O)[C@H](CC(=O)O)NC(=O)[C@H](CCC(=O)O)NC(=O)[C@H](CC(C)C)NC(=O)[C@H](Cc2c[nH]c4ccccc24)NC(=O)[C@H](CCC(N)=O)NC1=O)C(=O)N[C@@H](Cc1c[nH]c2ccccc12)C(=O)N[C@@H](CCCNC(=N)N)C(=O)NCC(=O)N[C@@H](Cc1cc(F)c(F)c(F)c1)C(=O)N[C@H](C(N)=O)CSCCC3=O` [Example 37, Ac-(SEQ ID NO: 33)], the Kd came to 19 nM.
With `CC(=O)N[C@H]1CSCCC(=O)N2CN3CN(C2)C(=O)CCSC[C@H](NC(=O)[C@H](CC(=O)O)NC(=O)[C@H](CCC(=O)O)NC(=O)[C@H](CC(C)C)NC(=O)[C@H](Cc2c[nH]c4ccccc24)NC(=O)[C@H](CCC(N)=O)NC1=O)C(=O)N[C@@H](Cc1c[nH]c2ccccc12)C(=O)N[C@@H](CCCNC(=N)N)C(=O)NCC(=O)N[C@@H](Cc1ccc(Cl)c(F)c1)C(=O)N[C@H](C(N)=O)CSCCC3=O` [Example 41, Ac-(SEQ ID NO: 37)], the Kd is 24 nM.
Regarding `CC(C)C[C@@H]1NC(=O)[C@H](Cc2c[nH]c3ccccc23)NC(=O)[C@H](CCC(N)=O)NC(=O)[C@@H](N)CSCCC(=O)N2CN3CN(C2)C(=O)CCSC[C@H](NC(=O)[C@H](CC(=O)O)NC(=O)[C@H](CCC(=O)O)NC1=O)C(=O)N[C@@H](Cc1c[nH]c2ccccc12)C(=O)N[C@@H](CCCNC(=N)N)C(=O)NCC(=O)N[C@@H](Cc1ccc(F)cc1)C(=O)N[C@H](C(=O)O)CSCCC3=O` [Example 48, (SEQ ID NO: 15)-COOH], the Kd worked out at 33 nM.
Turning to `CC(=O)N[C@H]1CSCCC(=O)N2CN3CN(C2)C(=O)CCSC[C@H](NC(=O)[C@H](CC(=O)O)NC(=O)[C@H](CCC(=O)O)NC(=O)[C@H](CC(C)C)NC(=O)[C@H](Cc2c[nH]c4ccccc24)NC(=O)[C@H](CCC(N)=O)NC1=O)C(=O)N[C@@H](Cc1c[nH]c2ccccc12)C(=O)N[C@@H](CCCNC(=N)N)C(=O)NCC(=O)N[C@@H](Cc1ccccc1)C(=O)N[C@H](C(=O)N[C@@H](C)C(=O)N1CCC[C@H]1C(=O)N[C@@H](CC(=O)O)C(=O)N[C@@H](CCC(=O)O)C(=O)N[C@@H](CCCNC(=N)N)C(=O)N[C@@H](CC(=O)O)C(N)=O)CSCCC3=O` [Example 54, Ac-(SEQ ID NO: 38)-APDERD], the Kd was 46 nM.
With `CC(C)C[C@@H]1NC(=O)[C@H](Cc2c[nH]c3ccccc23)NC(=O)[C@H](CCC(N)=O)NC(=O)[C@@H](NC(=O)[C@H](C)N)CSCCC(=O)N2CN3CN(C2)C(=O)CCSC[C@H](NC(=O)[C@H](CC(=O)O)NC(=O)[C@H](CCC(=O)O)NC1=O)C(=O)N[C@@H](Cc1c[nH]c2ccccc12)C(=O)N[C@@H](CCCNC(=N)N)C(=O)NCC(=O)N[C@@H](Cc1ccccc1)C(=O)N[C@H](C(=O)N[C@@H](CC(=O)O)C(=O)N[C@@H](CC(=O)O)C(=O)N[C@@H](C)C(=O)N[C@@H](Cc1c[nH]cn1)C(=O)N[C@@H](C)C(=O)N1CCC[C@H]1C(N)=O)CSCCC3=O` [Example 55, A-(SEQ ID NO: 38)-DDAHAP], the Kd came out at 47 nM.
In the case of `CC(=O)N[C@H]1CSCCC(=O)N2CN3CN(C2)C(=O)CCSC[C@H](NC(=O)[C@H](CC(=O)O)NC(=O)[C@H](CCC(=O)O)NC(=O)[C@H](CC(C)C)NC(=O)[C@H](Cc2c[nH]c4ccccc24)NC(=O)[C@H](CCC(N)=O)NC1=O)C(=O)N[C@@H](Cc1c[nH]c2ccccc12)C(=O)N[C@@H](CCCNC(=N)N)C(=O)NCC(=O)N[C@@H](Cc1cc(F)c(Cl)c(F)c1)C(=O)N[C@H](C(N)=O)CSCCC3=O` [Example 58, Ac-(SEQ ID NO: 46)], the Kd stood at 52 nM.
The result for `CC(C)C[C@@H]1NC(=O)[C@H](Cc2c[nH]c3ccccc23)NC(=O)[C@H](CCC(N)=O)NC(=O)[C@@H](NC(=O)[C@@H](NC(=O)[C@H](CCCNC(=N)N)NC(=O)[C@H](CCC(N)=O)NC(=O)[C@H](CCC(=O)O)NC(=O)[C@H](CC(=O)O)NC(=O)[C@@H](N)CO)[C@@H](C)O)CSCCC(=O)N2CN3CN(C2)C(=O)CCSC[C@H](NC(=O)[C@H](CC(=O)O)NC(=O)[C@H](CCC(=O)O)NC1=O)C(=O)N[C@@H](Cc1c[nH]c2ccccc12)C(=O)N[C@@H](CCCNC(=N)N)C(=O)NCC(=O)N[C@@H](Cc1ccccc1)C(=O)N[C@H](C(=O)N[C@@H](C)C(N)=O)CSCCC3=O` [Example 61, SDEQRT-(SEQ ID NO: 38)-A] reads 62 nM; that for `CC(C)C[C@@H]1NC(=O)[C@H](Cc2c[nH]c3ccccc23)NC(=O)[C@H](CCC(N)=O)NC(=O)[C@@H](NC(=O)CNC(=O)[C@@H](NC(=O)[C@H](CCC(=O)O)NC(=O)[C@H](CC(=O)O)NC(=O)[C@@H](NC(=O)[C@@H](N)CCCNC(=N)N)[C@@H](C)O)[C@@H](C)O)CSCCC(=O)N2CN3CN(C2)C(=O)CCSC[C@H](NC(=O)[C@H](CC(=O)O)NC(=O)[C@H](CCC(=O)O)NC1=O)C(=O)N[C@@H](Cc1c[nH]c2ccccc12)C(=O)N[C@@H](CCCNC(=N)N)C(=O)NCC(=O)N[C@@H](Cc1ccccc1)C(=O)N[C@H](C(=O)N[C@@H](C)C(N)=O)CSCCC3=O` [Example 67, RTDETG-(SEQ ID NO: 38)-A], 75 nM; that for `CC(=O)N[C@H]1CSCCC(=O)N2CN3CN(C2)C(=O)CCSC[C@H](NC(=O)[C@H](CC(=O)O)NC(=O)[C@H](CCC(=O)O)NC(=O)[C@H](CC(C)C)NC(=O)[C@H](Cc2cccc4ccccc24)NC(=O)[C@H](CCC(N)=O)NC1=O)C(=O)N[C@@H](Cc1c[nH]c2ccccc12)C(=O)N[C@@H](CCCNC(=N)N(C)C)C(=O)NCC(=O)N[C@@H](Cc1ccc(F)cc1)C(=O)N[C@H](C(=O)O)CSCCC3=O` [Example 69, Ac-(SEQ ID NO: 34)-COOH], 77 nM.
With `CC(C)C[C@@H]1NC(=O)[C@H](Cc2c[nH]c3ccccc23)NC(=O)[C@H](CCC(N)=O)NC(=O)[C@@H](NC(=O)[C@H](CCC(=O)O)NC(=O)[C@H](CC(C)C)NC(=O)[C@H](CC(N)=O)NC(=O)[C@H](CC(N)=O)NC(=O)[C@@H](NC(=O)[C@@H](N)CCC(=O)O)[C@@H](C)O)CSCCC(=O)N2CN3CN(C2)C(=O)CCSC[C@H](NC(=O)[C@H](CC(=O)O)NC(=O)[C@H](CCC(=O)O)NC1=O)C(=O)N[C@@H](Cc1c[nH]c2ccccc12)C(=O)N[C@@H](CCCNC(=N)N)C(=O)NCC(=O)N[C@@H](Cc1ccccc1)C(=O)N[C@H](C(=O)N[C@@H](C)C(N)=O)CSCCC3=O` [Example 71, ETNNLE-(SEQ ID NO: 38)-A], the Kd was 82 nM.
The result for `CC(=O)N[C@H]1CSCCC(=O)N2CN3CN(C2)C(=O)CCSC[C@H](NC(=O)[C@H](CC(=O)O)NC(=O)[C@H](CCC(=O)O)NC(=O)[C@H](CC(C)C)NC(=O)[C@H](Cc2c[nH]c4ccccc24)NC(=O)[C@H](CCC(N)=O)NC1=O)C(=O)N[C@@H](Cc1c[nH]c2ccccc12)C(=O)N[C@@H](CCCNC(=N)N)C(=O)NCC(=O)N[C@@H](Cc1ccc(C(F)(F)F)cc1)C(=O)N[C@H](C(N)=O)CSCCC3=O` [Example 77, Ac-(SEQ ID NO: 58)] reads 93 nM.
Regarding `CC(=O)N[C@H]1CSCCC(=O)N2CN3CN(C2)C(=O)CCSC[C@H](NC(=O)[C@H](CC(=O)O)NC(=O)[C@H](CCC(=O)O)NC(=O)[C@H](CC(C)C)NC(=O)[C@H](Cc2c[nH]c4ccccc24)NC(=O)[C@H](CCC(N)=O)NC1=O)C(=O)N[C@@H](Cc1c[nH]c2ccccc12)C(=O)N[C@@H](CCCC[N+](C)(C)C)C(=O)NCC(=O)N[C@@H](Cc1ccccc1)C(=O)N[C@H](C(N)=O)CSCCC3=O` [Example 81, Ac-(SEQ ID NO: 61)], the Kd was determined as 100 nM.
For `CC(C)C[C@@H]1NC(=O)[C@H](Cc2c[nH]c3ccccc23)NC(=O)[C@H](CCC(N)=O)NC(=O)[C@@H](N)CSCCC(=O)N2CN3CN(C2)C(=O)CCSC[C@H](NC(=O)[C@H](CC(=O)O)NC(=O)[C@H](CCC(=O)O)NC1=O)C(=O)N[C@@H](Cc1c[nH]c2ccccc12)C(=O)N[C@@H](CCCNC(N)=O)C(=O)NCC(=O)N[C@@H](Cc1ccccc1)C(=O)N[C@H](C(N)=O)CSCCC3=O` [Example 102, (SEQ ID NO: 76)], the Kd came out at 170 nM.
Turning to `CC(C)C[C@@H]1NC(=O)[C@H](Cc2c[nH]c3ccccc23)NC(=O)[C@H](CC(N)=O)NC(=O)[C@@H](NC(=O)[C@H](C)N)CSCCC(=O)N2CN3CN(C2)C(=O)CCSC[C@H](NC(=O)[C@H](CC(=O)O)NC(=O)[C@H](CCC(=O)O)NC1=O)C(=O)N[C@@H](Cc1c[nH]c2ccccc12)C(=O)N[C@@H](Cc1c[nH]cn1)C(=O)NCC(=O)N[C@@H](Cc1ccccc1)C(=O)N[C@H](C(=O)N[C@@H](Cc1c[nH]cn1)C(=O)N[C@@H](CCC(=O)O)C(=O)N[C@@H](CCC(=O)O)C(N)=O)CSCCC3=O` [Example 125, A-(SEQ ID NO: 89)-HEE] (H-ACNWLEDCWHGFCHEE-NH2; linker 2-8-13 via TATA), the Kd was found to be 300 nM.
